Test results reported in US5288725A, “Pyrroloquinoline Bradykinin antagonist” (Merck & Co., Inc., priority 1992, dated 1994).
Where no end group is shown, it is not given here.

What was measured:
BK β2 receptor = target: T1, BK β2 receptor (Cavia porcellus, UniProt O70526); experiment: [3H] BK radioligand binding, guinea pig ileum membranes; details: read-out: IC50, inhibition of [3H] BK binding
T1 construct: from tissue; host or cells: guinea pig ileum membranes
T1 sequence (O70526 1-372): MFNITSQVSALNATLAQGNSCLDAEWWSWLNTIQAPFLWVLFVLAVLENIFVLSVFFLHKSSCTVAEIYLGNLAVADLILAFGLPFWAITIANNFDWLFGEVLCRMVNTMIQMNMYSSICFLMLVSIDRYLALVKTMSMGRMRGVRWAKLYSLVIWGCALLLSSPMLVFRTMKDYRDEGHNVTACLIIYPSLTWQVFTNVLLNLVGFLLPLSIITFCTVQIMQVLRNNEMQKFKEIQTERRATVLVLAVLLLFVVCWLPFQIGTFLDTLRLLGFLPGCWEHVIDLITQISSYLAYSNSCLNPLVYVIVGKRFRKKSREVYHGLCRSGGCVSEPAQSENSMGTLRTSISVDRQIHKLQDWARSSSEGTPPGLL

α1-adrenergic receptors = experiment: [3H] Prazosin radioligand binding, rat brain
[1] = target: cholinergic muscarinic receptors; experiment: [3H] Quinuclidinyl benzilate binding, rat cerebral cortex membranes
[2] = target: T2, cholinergic muscarinic receptors (Rattus norvegicus, UniProt P10980); experiment: [3H] Quinuclidinyl benzilate binding, rat cardiac membranes
T2 construct: rat cardiac membranes; from tissue; host or cells: rat cardiac membranes
T2 sequence (P10980 1-466): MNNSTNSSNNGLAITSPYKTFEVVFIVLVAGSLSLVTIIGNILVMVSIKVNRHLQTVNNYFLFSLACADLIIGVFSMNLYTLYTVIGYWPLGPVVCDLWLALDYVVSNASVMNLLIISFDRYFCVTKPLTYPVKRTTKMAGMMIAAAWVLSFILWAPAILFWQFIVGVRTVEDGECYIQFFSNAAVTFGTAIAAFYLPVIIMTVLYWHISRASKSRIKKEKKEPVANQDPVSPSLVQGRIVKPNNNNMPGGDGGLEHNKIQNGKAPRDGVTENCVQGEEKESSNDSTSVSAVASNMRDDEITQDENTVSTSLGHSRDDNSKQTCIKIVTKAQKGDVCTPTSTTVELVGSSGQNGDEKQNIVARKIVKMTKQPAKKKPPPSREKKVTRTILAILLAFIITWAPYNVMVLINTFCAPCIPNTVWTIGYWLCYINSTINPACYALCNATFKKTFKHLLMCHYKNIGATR

[3] = target: T3, cholinergic muscarinic receptors (Cavia porcellus, UniProt H0VRN8); experiment: [3H] Quinuclidinyl benzilate binding, guinea pig ileum membranes
T3 construct: guinea pig ileum membranes as described by Watson; from tissue; host or cells: guinea pig ileum membranes
T3 sequence (H0VRN8 1-466): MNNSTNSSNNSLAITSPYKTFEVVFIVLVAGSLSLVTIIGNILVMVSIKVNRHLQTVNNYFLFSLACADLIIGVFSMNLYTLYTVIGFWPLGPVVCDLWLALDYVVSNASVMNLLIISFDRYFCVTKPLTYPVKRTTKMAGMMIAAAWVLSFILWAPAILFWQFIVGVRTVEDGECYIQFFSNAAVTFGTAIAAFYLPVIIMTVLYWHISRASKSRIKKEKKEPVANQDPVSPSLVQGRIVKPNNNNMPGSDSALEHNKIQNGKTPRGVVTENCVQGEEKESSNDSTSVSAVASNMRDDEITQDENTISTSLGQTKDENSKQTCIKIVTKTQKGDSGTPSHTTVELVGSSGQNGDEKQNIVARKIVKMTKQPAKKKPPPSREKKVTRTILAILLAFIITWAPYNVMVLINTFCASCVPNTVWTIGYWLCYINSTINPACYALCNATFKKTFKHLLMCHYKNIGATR

BK-β1 receptors = target: T4, BK-β1 receptors (Oryctolagus cuniculus, UniProt P48748); experiment: Antagonism of BK-β1 receptors, spiral strips of rabbit thoracic aorta (agonist des Arg9-BK); details: Schild analysis
T4 construct: spiral strips of rabbit thoracic aorta; from tissue; host or cells: rabbit thoracic aorta spiral strips
T4 sequence (P48748 1-352): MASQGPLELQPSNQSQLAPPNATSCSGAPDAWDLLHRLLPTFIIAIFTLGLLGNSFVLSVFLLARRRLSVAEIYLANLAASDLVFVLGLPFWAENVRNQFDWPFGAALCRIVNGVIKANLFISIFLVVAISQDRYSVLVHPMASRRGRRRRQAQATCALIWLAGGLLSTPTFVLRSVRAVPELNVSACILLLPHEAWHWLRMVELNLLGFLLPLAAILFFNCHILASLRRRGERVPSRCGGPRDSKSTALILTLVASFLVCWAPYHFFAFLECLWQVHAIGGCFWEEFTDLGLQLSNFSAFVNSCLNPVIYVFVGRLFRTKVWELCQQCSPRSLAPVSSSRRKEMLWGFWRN
Description: (§1) Antagonism of BK-β1 receptors was measured using spiral strips of rabbit thoracic aorta as described by Regoli et. al., Eur. J. Pharmacol., 127,219 (1986).

α1-adrenergic receptor = α1-adrenergic receptor activity in rabbit aorta (agonist norepinephrine)
Description: as §1
(§2) The α1 -adrenergic and H1 histaminergic receptor activity of compounds were also assessed using rabbit aorta with norepinephrine and histamine, respectively, as agonists.

histamine H1 receptor = experiment: H1 histaminergic receptor activity in rabbit aorta (agonist histamine)
Description: as §1, §2

[4] = system: bradykinin receptors of rat vas deferens; details: cited from earlier work
β1 receptor = details: compared with BK; cited from earlier work
β2 receptors = details: cited from earlier work

CC(C)=CCNC(=N)NCCC[C@@H]1Nc2ccc(C(=O)OC/C(C)=C/CNC(=N)N)cc2[C@@H]2[C@H]1CCN2C(=N)NCC=C(C)C (relative stereo) [Compound I]
IC50 (BK β2 receptor): 200 nM | IC50 (α1-adrenergic receptors): 60 nM | IC50 [1]: 100 nM | IC50 [2]: 100 nM | IC50 [3]: 100 nM | mode of antagonism, β1 receptor (BK-β1 receptors): competitive β1 receptor antagonist | Kb (BK-β1 receptors; read-out: pA2 value, β1 receptor (converted)): 2000 nM | mode of antagonism, α1 receptor (α1-adrenergic receptor): competitive antagonist | pA2 value, α1 receptor (α1-adrenergic receptor): 7.1 | mode of antagonism, histamine H1 receptor (histamine H1 receptor): competitive antagonist | pA2 value, histamine H1 receptor (histamine H1 receptor): 5.9

RPPGFSPFR [BK]
musculotropic or postjunctional action ([4]; isolated rat vas deferens): contracted the smooth muscle generating an increased muscle tone | neurogenic or presynaptic effect ([4]; isolated rat vas deferens, electrically driven twitches): potentiated the magnitude of the muscular response to the electrically driven twitches

des-Arg^9 -bradykinin
pre- or postsynaptic BK like responses ([4]; rat vas deferens): inactive | β1 receptor agonist potency (β1 receptor): higher potency than BK | activity at β2 receptors (β2 receptors): relatively inactive
